Measurements published in patent US7744910B2, “Compounds and compositions for delivering active agents” (Emisphere Technologies, Inc., priority 1998, dated 2010).
Several values for one entry are separate records, joined by “and”; a condition that tells them apart may be missing. Equal values may be shown once. Read-outs that look alike come from different tables or passages of the source.

Columns and labels:
[1] = Oral delivery of salmon calcitonin (sCT) in rats; serum sCT by EIA; conditions: compound dose 50 mg/kg, sCT dose 25 μg/kg, modified EIA protocol
Description: (§1) Oral dosing (PO) compositions of delivery agent compound and salmon calcitonin (sCT) in water were prepared by mixing. 450 mg of compound was added to 2.0 ml of water. Either the sodium salt of the compound was used or the free acid was converted to the sodium salt by stirring the resultant solution and adding one equivalent of sodium hydroxide (1.0 N) and diluting with water. 90 μg sCT was added to the solution. Water was then added to bring the total volume to 3.0 ml. […] (For compounds 118 and 123, the solutions were diluted to 6.0 ml and the volume dose was doubled.) The total sCT concentration was 30 μg/ml.
(§2) Male Sprague-Dawley rats weighing between 200-25.0 g were fasted for 24 hours and were administered ketamine (44 mg/kg) and chlorpromazine (1.5 mg/kg) 15 minutes prior to dosing. The rats were administered 1 ml/kg of dosing solution (2 ml/kg for compounds 118 and 123). Blood samples were collected serially from the tail artery. Serum sCT was determined by testing with an EIA kit (Kit # EIAS-6003 from Peninsula Laboratories, Inc., San Carlos, Calif.). The standard protocol from the kit was modified for compounds 104 and 105 as follows: incubated with 50 μl peptide antibody for 2 hours with shaking in the dark, washed the plate, added serum and biotinylated peptide and diluted with 4 ml buffer, and shook overnight in the dark.

[2] = PTH delivery in rats, oral (PO) and intracolonic (IC); serum PTH by radioimmunoassay; type: in vivo, Sprague-Dawley rats
Description: Oral gavage (PO) or intracolonic (IC) dosing solutions of delivery agent compound and parathyroid hormone residues 1-34 (PTH) (residues 1-38 for the solution with compound 103) were prepared. […] The final dosing solutions were prepared by mixing the compound solution with a PTH stock solution (typically having a concentration of 5 mg PTH/ml) and diluting to the desired volume (usually 3.0 ml).
The rats were administered one of the dosing solutions at 1 ml/kg for PO or 0.5 ml/kg for IC. Blood samples were collected serially from the tail artery for serum determination of PTH concentration. Serum PTH concentrations were quantified by a PTH radioimmunoassay kit (Kit # RIK 6101 from Peninsula Laboratories, Inc., San Carlos, Calif.).

[3] = Intracolonic delivery of heparin in rats; heparin activity by activated partial thromboplastin time (APTT); type: in vivo, Sprague-Dawley rats; conditions: IC
Description: Intracolonic dosing (IC) compositions containing delivery agent compound and heparin sodium USP in 25% aqueous propylene glycol were prepared by mixing. […] Typically, compound and heparin powders were mixed, 25% aqueous propylene glycol was added, NaOH solution was added, the contents sonicated, then diluted to a volume of 3.0. pH was checked and adjusted if necessary to pH=7-8.
The dosing solutions were administered to fasted rats at a volume dose of 1 ml/kg. Blood samples were collected by cardiac puncture following the administration of ketamine (44 mg/kg). Heparin activity was determined utilizing the activated partial thromboplastin time (APTT) according to the method of Henry, J. B., Clinical Diagnosis and Management by Laboratory Methods; Philadelphia, Pa.; W. B. Saunders (1979).

[4] = rat, in vivo, po, 150 mg/kg
Description: as §1, §2

[5] = Oral delivery of rhGH in rats; serum rhGH by immunoassay; type: in vivo, Sprague-Dawley rats
Description: Oral gavage (PO) dosing solutions of delivery agent compound and rhGH in phosphate buffer were prepared. […] The final dosing solutions were prepared by mixing the compound solution with an rhGH stock solution (typically having a concentration of 15 mg rhGH/ml) and diluting to the desired volume (usually 3.0 ml).
The rats were administered 1 ml/kg of the dosing solution. Blood samples were collected serially from the tail artery for determination of serum rhGH concentrations. Serum rhGH concentrations were quantified by an rhGH immunoassay test kit (Kit # KIF4015 from Genzyme Corporation Inc., Cambridge, Mass.).

[6] = PO, compound dose 100 mg/kg, PTH (1-34) dose 200 μg/kg
[7] = compound dose 50 mg/kg, heparin dose 25 mg/kg
[8] = compound dose 200 mg/kg, rhGH dose 3 mg/kg
[9] = PO, compound dose 300 mg/kg, PTH (1-34) dose 100 μg/kg
[10] = compound dose 300 mg/kg, rhGH dose 6 mg/kg

| Structure (SMILES) | Mean Peak APTT [3, 7] | other results |
| --- | --- | --- |
| COc1ccc(C(=O)Nc2ccc(CCCC(=O)O)cc2)c(O)c1 [Compound 104] |  | Serum sCT (pg/ml) ± SD (SE) [1]: 287 ± 104 pg/mL; Mean Peak Serum PTH [2, 6]: 286.35 ± 191.58 pg/mL |
| O=C(O)CCCCCC(=O)Nc1cc(Cl)ccc1O [Compound 120] | 42 ± 34 s |  |
| O=C(O)CCCCCCCCCCCNC(=O)c1ccccc1 [Compound 98] | 25 ± 5 s |  |
| O=C(O)CCCCCCCNC(=O)Cc1ccc(O)cc1 [Compound 46] | 52 ± 34 s |  |
| O=C(O)CCCCCCCCCNC(=O)c1ccccc1 [Compound 100] | 31 ± 8 s |  |
| COc1ccc(C(=O)NCCCCCCCCCC(=O)O)c(O)c1 [Compound 108] | 72.9 ± 28.9 s |  |
| O=C(O)CCCCCCCNC(=O)c1cc(Cl)cc(Br)c1O [Compound 48] | 75 ± 18 s |  |
| COc1ccc(C(=O)NCCCCCCCCCCCC(=O)O)c(O)c1 [Compound 109] | 24.2 ± 1.7 s |  |
| O=C(O)CCCC(=O)Nc1cc(Cl)ccc1O [Compound 119] |  | Serum sCT (pg/ml) ± SD (SE) [4]: 95 ± 119 (53) pg/ml |
| O=C(O)CCCCCCCCCNC(=O)c1ccccc1F [Compound 85] | 27 ± 4 s |  |
| O=C(O)CNC(=O)c1ccccc1 [Compound 110] | 26.5 ± 4.7 s and 23.4 ± 0.7 s |  |
| O=C(O)CCCNC(=O)c1ccccc1F [Compound 92] | 22 ± 2 s | Mean Peak Serum PTH [2, 6]: 303 ± 427 pg/mL |
| O=C(O)CCCCCCCCC(=O)Nc1cc(Cl)ccc1O [Compound 123] |  | Serum sCT (pg/ml) ± SD (SE) [4]: 0 pg/mL |
| O=C(O)CCCCCCCNC(=O)c1cc(Cl)cc(F)c1O [Compound 45] |  | Mean Peak Serum [rhGH] [5, 8]: 49 ± 56 ng/mL |
| Cc1ccccc1C(=O)NCCCCCC(=O)O [Compound 101] | 26 ± 5 s |  |
| Cc1ccccc1C(=O)NCC(=O)O [Compound 111] | 24.4 ± 3.3 s |  |
| Cc1cc(C)c(O)c(C(=O)Nc2ccc(CCCC(=O)O)cc2)c1 [Compound 14] | 54 ± 21 s |  |
| O=C(O)CCc1ccc(F)c(NC(=O)c2ccccc2O)c1 [Compound 60] | 71 ± 43 s |  |
| COc1ccccc1C(=O)NCC(=O)O [Compound 112] | 28.7 ± 11.5 s |  |
| Cc1cc(F)cc(C(=O)NCCCCCCCC(=O)O)c1O [Compound 56] | 91 ± 75 s |  |
| O=C(O)CCCNC(=O)c1cc(Cl)ccc1O [Compound 105] |  | Serum sCT (pg/ml) ± SD (SE) [1]: 583 ± 140 pg/mL |
| CNc1ccccc1C(=O)Nc1ccc(CCCC(=O)O)cc1 [Compound 10] |  | Mean Peak Serum [rhGH] [5, 8]: 43 ± 65 ng/mL; Mean Peak Serum PTH [2, 9]: 420 ± 335 pg/mL |
| COc1ccccc1C(=O)NCCCCCCCCCCCC(=O)O [Compound 96] | 72 ± 63 s |  |
| O=C(O)CCCCCCCCCCNC(=O)c1ccccc1F [Compound 88] | 59 ± 47 s |  |

| Structure (SMILES) | Mean Peak APTT [3, 7] | other results |
| --- | --- | --- |
| Cc1ccccc1C(=O)NCCCC(=O)O [Compound 91] | 24 ± 4 s | Mean Peak Serum PTH [2, 6]: 5 ± 12 pg/mL |
| Nc1ccc(Cl)cc1C(=O)NCCCCCCCC(=O)O [Compound 40] |  | Mean Peak Serum [rhGH] [5, 10]: 42 ± 80 ng/mL |
| O=C(O)CNC(=O)c1ccccc1F [Compound 113] | 20.4 s |  |
| O=C(O)CCCCCCCCCCNC(=O)c1ccccc1 [Compound 87] | 21 ± 1 s and 23 ± 3 s |  |
| Cc1ccccc1C(=O)NCCCCCCCCCCCC(=O)O [Compound 95] | 30 ± 2 s |  |
| O=C(O)CCNC(=O)c1ccccc1O [Compound 103] | 21.9 ± 2.0 s | Mean Peak Serum PTH ([2]; IC, compound dose 100 mg/kg, PTH residues 1-38 dose 25 μg/kg): 38.53 ± 30.9 pg/mL |
| COc1ccc(C(=O)NCC(=O)O)c(O)c1 [Compound 102] | 24.8 ± 0.9 s and 24.7 ± 6.5 s |  |
| COc1ccccc1C(=O)NCCCC(=O)O [Compound 90] | 26 ± 7 s | Mean Peak Serum PTH [2, 6]: 14 ± 21 pg/mL |
| O=C(O)CCCCCNC(=O)c1ccccc1F [Compound 86] | 24 ± 1 s and 31 ± 11 s | Mean Peak Serum PTH [2, 6]: 0 pg/mL |
| COc1ccccc1C(=O)NCCCCCCCCCC(=O)O [Compound 94] | 50 ± 28 s | Mean Peak Serum PTH [2, 6]: 17 ± 38 pg/mL |
| O=C(O)CCCCCCCNC(=O)c1cc(F)cc(F)c1O [Compound 41] | 41 ± 26 s |  |
| COc1ccc(C(=O)NCCCCCC(=O)O)c(O)c1 [Compound 107] | 26.2 ± 6.1 s |  |
| O=C(O)CCCCCCCNC(=O)c1cc(F)ccc1O [Compound 54] | 124 ± 137 s | Mean Peak Serum [rhGH] [5, 8]: 48 ± 33 ng/mL |
| O=C(O)CCCCCCCC(=O)Nc1cc(Cl)ccc1O [Compound 122] |  | Serum sCT (pg/ml) ± SD (SE) [4]: 187 ± 79 (36) pg/ml |
| O=C(O)CCCCCCCNC(=O)c1c(O)cccc1Cl [Compound 51] | 111 ± 49 s |  |
| COc1ccc(C(=O)NCCCC(=O)O)c(O)c1 [Compound 106] | 48 ± 16.9 s and 27.7 ± 12.6 s |  |
| Cc1ccccc1C(=O)NCCCCCCCCCC(=O)O [Compound 99] | 34 ± 7 s |  |
| O=C(O)CCCNC(=O)c1ccccc1 [Compound 93] |  | Mean Peak APTT ([3]; compound dose 25 mg/kg, heparin dose 50 mg/kg): 22 ± 0 s; Mean Peak Serum PTH [2, 6]: 343 ± 155 pg/mL |
| CNc1ccccc1C(=O)Nc1ccc(CCC(=O)O)cc1 [Compound 7] | 59 ± 41 s |  |
| O=C(O)CCCCCNC(=O)c1ccccc1 [Compound 89] | 33 ± 7 s | Mean Peak Serum PTH [2, 6]: 27 ± 61 pg/mL |
| O=C(O)CCCc1ccc(Nc2cc(=O)oc3ccccc23)cc1 [Compound 72] | 50 ± 18 s |  |
| O=C(O)CCCCCCCCCCCNC(=O)c1ccccc1F [Compound 97] | 33 ± 10 s |  |
| Nc1ccc(F)cc1C(=O)Nc1ccc(CCCC(=O)O)cc1 [Compound 3] |  | Mean Peak Serum [rhGH] [5, 10]: 72 ± 45 ng/mL; Mean Peak Serum PTH [2, 9]: 222 ± 155 pg/mL |
| Cc1cc(Cl)cc(C(=O)NCCCCCCCC(=O)O)c1O [Compound 55] | 125 ± 195 s |  |
